Laboratory results as given in patent publication US20120014911A1, “Regulators of the Interferon-Alpha Receptor 1 (IFNAR1) Chain of the Interferon Receptor” (priority 2009, published 2012).
Where a name gives a salt, the structure may show the parent alone. Read-outs that look alike come from different tables or passages of the source.

Legend:
Stat1 = Stat1 tyrosine phosphorylation in response to IFN-α, immunoblot; assay type: cell-based, human
IFNAR1 [1] = test system: IFNAR1
protein kinase D (PKD) = details: literature (Gschwendt et al., 1996; Sharlow et al., 2008); cited from earlier work
[2] = test system: ligand-inducible IFNAR1 degron kinase activity; assay: Phosphorylation-binding assay: GST-IFNAR1 phosphorylated by CK1α-depleted lysates of IFN-α-treated cells, then binding of 35S-labeled β-Trcp2; assay type: biochemical, human; details: inhibitor added in vitro: H89 200 nM, BAY43-9006 50 nM, Bis-I 25 nM, Gö6976 25 nM, LY294002 1.5 μM, SP600125 100 nM, D4476 400 nM, SB203580 100 nM
Method: For some binding assays, the lysates from 293T cells (treated for various tunes with IFN-α, 2000 IU/mL) were depleted of CK1α (as described previously (Liu, et al., 2009, Mal Cell Biol 29(24):6401-12) were incubated with GST-IFNAR1 proteins (wild type or S535,539A mutant that migrates slower on SDS-PAGE due to the presence of four additional amino acids in the linker), ATP and kinase inhibitors (as indicated) for 30 min at 30° C. After that, GST-IFNAR1 were purified and incubated with in vitro translated and 35S-methionine-labeled 3-Trcp2 for 1 h at 4° C.; this binding was later analyzed by autoradiography and Coomassie staining. In vitro serine phosphorylation of GST-IFNAR1 (analyzed by autoradiography or IB with pS535 antibody) by cell extracts or PKD preparations and tyrosine phosphorylation of GST-PKD2 by Tyk2 was carried out and analyzed as described elsewhere herein.
For other binding assays, the lysates from 293T cells (treated for various times with IFN-α, 2000 IU/mL) underwent two rounds of immunodepletion of CK1α as described elsewhere (Liu, et al., 2009, Mol Cell Biol 29(24):6401-12). GST-IFNAR1 proteins (wild type or S535,539A mutant that migrates slower on SDS-PAGE due to the presence of four additional amino acids in the linker (Liu et al., 2009, Cell Host Microbe 5(1):72-83)) were expressed and purified from bacterial cells using glutathione Sepharose. Purified bacterial proteins (2 μg) were incubated in the presence of CK1α-depleted cell lysates (5 μg), unlabeled ATP (0.5 mM) in total volume of 20 μL (containing 25 mM Tris-HCL pH 7.5, 5 mM MgCl2, 100 mM KCl, 1 mM EGTA, 1 mM Na3VO4, 0.1 mM DTT and 3.5% glycerol) for 30 min at 30° C. When indicated, the following kinase inhibitors were added to the reaction in I pi, of DMSO to the final concentration indicated: H89 (200 nM), BAY43-9006 (50 nM), Bis-I (25 nM), Gö6976 (25 nM), LY294002 (1.5 μM), SP600125 (100 nM), D4476 (400 nM), SB203580 (100 nM). The reactions were stopped by placing the tubes on ice and adding 150 μL of ice-cold binding buffer (PBS supplemented with 0.1% NP40 and 50 mM NaF) and incubated with glutathione Sepharose beads (20 μL) for 2 h at 4° C. The beads were then washed three times with 0.5 mL of binding buffer and incubated with 2 μL of in vitro translated and 35S-methionine-labeled13-Trcp2 for 1 h at 4° C. Beads were then washed three times with 1 mL of binding buffer, and the proteins were eluted using Laemmli buffer, resolved by SDS-PAGE, and analyzed by autoradiography and Coomassie staining.

[3] = test system: IFNAR1 Ser535 phosphorylation; assay: IFN-α-induced Ser535 (degron) phosphorylation of IFNAR1 in cells, IP-immunoblot with anti-pS535; assay type: cell-based, human
Method: Immunoprecipitation and immunoblotting procedures are described elsewhere (Fuchs et al, 1999, Oncogene 18:2039-2046). Protein degradation was carried out by cycloheximide (CHX, used at 20 μg/ml) chase. IFNAR1 internalization assay was carried out using the Fluorescence-based assay as described elsewhere (Kumar et al., 2007, J Cell Biol 179:935-950). BAY 43-9006 was obtained as a gift. Recombinant human IFN-a2 (Roferon) was purchased from Roche. Other reagents or inhibitors were purchased from commercial vendors.
Antibodies against Flag, GST and j3-actin (Sigma), HA (12CA, Roche), CK1α, PICD1/2 (PKCμ), PKD3 (PKCν), Tyk2, intracellular domain of hIFNAR1 and PKR, (Santa Cruz), anti-pan-phospho-tyrosine (4G10), phospho-Stat1 and Stat1 (Cell signaling), phospho-S710 of PKD2 (Biosource), PKD2 (Bethyl Laboratories), mIFNAR1 (Leinco) and ubiquitin (FK2, Biomol) were purchased. AA3, GB8 and EAl2 antibodies which recognize endogenous IFNAR1 (Goldman et al., 1999) and antibodies against IFNAR1 phosphorylated on Ser535 (pS535; (Kumar et al., 2004, J Biol Chem 279:46614-46620)) were described previously. Secondary antibodies conjugated to horseradish peroxidase were purchased from Chemicon and LI-COR. Immunoprecipitation and immunoblotting procedures are described elsewhere (Fuchs et al, 1999, Oncogene 18:2039-2046). Protein degradation was carried out by cycloheximide (CHX) chase in the presence of CHX (20 μg/ml). Immunoblot detection and quantification were carried out using the LI-COR's Odyssey Infrared Imaging System.

PKD2 [4] = target: T1, PKD2 (Homo sapiens, UniProt Q9BZL6); assay: In vitro phosphorylation of GST-IFNAR1 on Ser535 by purified GST-PKD2; assay type: biochemical; set-up: made in house; host or cells: 293T cells (human), transient expression, glutathione pull-down; details: Gö6976 20-200 nM
T1 sequence (Q9BZL6 1-878): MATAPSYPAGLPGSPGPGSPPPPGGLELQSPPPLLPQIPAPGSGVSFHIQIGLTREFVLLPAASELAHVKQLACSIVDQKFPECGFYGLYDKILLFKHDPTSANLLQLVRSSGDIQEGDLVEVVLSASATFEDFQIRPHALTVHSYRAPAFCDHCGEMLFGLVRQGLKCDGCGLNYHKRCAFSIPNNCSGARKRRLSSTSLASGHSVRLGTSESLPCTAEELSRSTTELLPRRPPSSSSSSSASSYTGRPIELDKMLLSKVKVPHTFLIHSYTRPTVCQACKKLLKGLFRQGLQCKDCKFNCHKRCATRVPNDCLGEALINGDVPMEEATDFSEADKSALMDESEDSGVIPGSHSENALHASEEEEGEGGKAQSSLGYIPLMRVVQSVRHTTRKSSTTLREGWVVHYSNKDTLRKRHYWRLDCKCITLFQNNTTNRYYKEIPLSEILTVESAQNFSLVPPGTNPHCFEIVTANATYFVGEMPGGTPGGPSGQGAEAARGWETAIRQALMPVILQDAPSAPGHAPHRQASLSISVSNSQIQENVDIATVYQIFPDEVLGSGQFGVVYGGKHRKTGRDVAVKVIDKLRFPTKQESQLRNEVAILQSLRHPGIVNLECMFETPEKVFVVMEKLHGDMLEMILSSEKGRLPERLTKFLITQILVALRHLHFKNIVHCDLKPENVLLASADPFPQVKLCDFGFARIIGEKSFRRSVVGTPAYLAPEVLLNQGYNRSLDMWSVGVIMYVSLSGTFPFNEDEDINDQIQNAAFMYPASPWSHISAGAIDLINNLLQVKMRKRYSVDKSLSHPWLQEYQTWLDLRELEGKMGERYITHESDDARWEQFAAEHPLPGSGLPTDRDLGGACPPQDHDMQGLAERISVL
Method: In vitro phosphorylation of GST-IFNAR1 by cell extracts or PKD preparations (via immunopurification or GST pulldown) was carried out in kinase buffer (50 mM Tris-HCl pH 7.4, 10 mM MgC12, and 2 mM DTT) with either 0.2 mM of unlabeled ATP or 10 μCi of γ-32P ATP for 20 min at 30° C. The products of this reaction were separated by SDS-PAGE and analyzed either by immunoblotting using anti-pS535 antibody or by autoradiography.

IFNAR1 [5] = assay type: cell-based, human
[6] = test system: IFNAR1 Ser535 phosphorylation; assay type: cell-based, human
[7] = test system: IFNAR1 Ser532 phosphorylation; assay type: cell-based, human
[8] = test system: IFNAR1 Ser535 phosphorylation; assay type: cell-based, human; remark: listed apart in the source
PKD2 [9] = target: T1, PKD2; assay: Sangivamycin inhibition of PKD2 (FIGS. 37-38)
IFN signaling = assay: Sangivamycin effect on IFN signaling (FIGS. 37-38)

VEGF
Stat1 phosphorylation in response to IFN-α (Stat1; human umbilical vein endothelial cells, VEGF 100 ng/ml 2 h, IFN-α 15 min): noticeably inhibits | phosphorylation of Flag-IFNAR1 on Ser535 (IFNAR1 [1]; U3A cells stably expressing Flag-IFNAR1, VEGF 100 ng/ml): increased | ubiquitination of IFNAR1 (IFNAR1 [1]; U3A-Flag-IFNAR1 cells, VEGF treatment): stimulated

Cn1c2ccccc2c2c3c(c4c5ccccc5n(CCC#N)c4c21)CNC3=O [Gö6976]
inhibition of / specificity against PKD (protein kinase D (PKD)): shown to inhibit | recruitment of β-Trcp2 to GST-IFNAR1 (phosphorylation-binding assay) [2]: dramatic inhibition | induction of Ser535 phosphorylation of Flag-IFNAR1 by IFN-α ([3]; U3A cells stably expressing Flag-IFNAR1, inhibitor pre-treatment): noticeably decreased | basal Ser535 (degron) phosphorylation of overexpressed IFNAR1 ([3]; U3A cells stably expressing Flag-IFNAR1, no ligand): neither the PKD inhibitor Gö6976 nor siRNA against PKD2 decreases | in vitro phosphorylation of GST-IFNAR1 on Ser535 by GST-PKD2 (PKD2 [4]): decreased the efficacy of IFNAR1 phosphorylation in a dose dependent manner

C/C=C(/C)C(=O)O[C@H]1C(C)=C2[C@H]([C@@H]1OC(=O)CCCCCCC)[C@@](C)(OC(C)=O)C[C@H](OC(=O)CCC)[C@@]1(O)[C@H]2OC(=O)[C@@]1(C)O [thapsigargin]
half life of IFNAR1 (IFNAR1 [5]; 293T cells treated with cycloheximide, TG 1 μM): decreased | levels of IFNAR1 (IFNAR1 [5]; human 293T cells, TG 1 μM, within two hours, absence of IFN): decreased | ubiquitination of IFNAR1 (IFNAR1 [5]; human fibrosarcoma cells with WT or KR Tyk2 and 293T cells): induced | tyrosine phosphorylation of Stat1 induced by IFN-α (Stat1; 293T cells pre-treated with TG 1 μM 4 h, IFNα 50 IU/ml 30 min): noticeably decreased | Ser535 phosphorylation of IFNAR1 in cells with wild type (WT) or catalytically inactive (KR) Tyk2 ([6]; 2fTGH-derived Tyk2 WT vs KR cells, 30 min): comparable levels | phosphorylation of endogenous IFNAR1 on Ser535 in the absence of IFN ([6]; 293T cells, TG 1 μM 30 min, DTT 5 mM 30 min): stimulated | extent of ubiquitination of wild type IFNAR1 ([7]; Flag-IFNAR1 in 293T cells, TG 1 μM): noticeably increased | phosphorylation of endogenous IFNAR1 on Ser532 and Ser535 ([7]; HeLa cells, TG 1 μM 30 min): led to phosphorylation of endogenous IFNAR1 on both Ser532 and Ser535 | activation of PERK assessed via phosphorylation of eIF2α ([8]; 293T cells, TG 1 μM 30 min): caused activation of PERK

C[S+]([O-])c1ccc(-c2nc(-c3ccncc3)c(-c3ccc(F)cc3)[nH]2)cc1 (centres unmarked) [SB203580]
recruitment of β-Trcp2 to GST-IFNAR1 (phosphorylation-binding assay) [2]: not inhibited

NCCNS(=O)(=O)c1ccc(Cl)c2ccncc12 [CKI-7]
ligand-independent Ser535 phosphorylation of Flag-IFNAR1 [8]: decreased

NC(=O)c1ccc(-c2nc(-c3ccc4c(c3)OCCO4)c(-c3ccccn3)[nH]2)cc1 [D4476]
recruitment of β-Trcp2 to GST-IFNAR1 (phosphorylation-binding assay) [2]: noticeable inhibition | Ser535 phosphorylation of IFNAR1 in response to TG [8]: noticeably attenuated | TG-induced phosphorylation of eIF2α [8]: comparable induction | eIF2a phosphorylation in VSV-infected cells [8]: without affecting | virus-induced S535 phosphorylation of IFNAR1 [8]: markedly attenuated | virus-induced downregulation of IFNAR1 [8]: markedly attenuated

CN [methylamine HCl]
thapsigargin-induced decrease of IFNAR1 levels (IFNAR1 [5]; 293T cells pre-treated with MA 20 mM 1 h): prevented

CN(C)CCCn1cc(C2=C(c3c[nH]c4ccccc34)C(=O)NC2=O)c2ccccc21 [Bis I, bisindolylmaleimide I]
recruitment of β-Trcp2 to GST-IFNAR1 (phosphorylation-binding assay) [2]: did not affect

NC(=O)c1cn([C@@H]2O[C@H](CO)[C@@H](O)[C@H]2O)c2ncnc(N)c12 [sangivamycin]
inhibition of PKD2 (PKD2 [9]): inhibits | efficiency of IFN signaling (IFN signaling): increases the efficiency of IFN signaling

CNC(=O)c1cc(Oc2ccc(NC(=O)Nc3ccc(Cl)c(C(F)(F)F)c3)cc2)ccn1 [BAY 43-9006]
recruitment of β-Trcp2 to GST-IFNAR1 (phosphorylation-binding assay) [2]: not inhibited

O=S(=O)(NCCNC/C=C/c1ccc(Br)cc1)c1cccc2cnccc12 [H89]
recruitment of β-Trcp2 to GST-IFNAR1 (phosphorylation-binding assay) [2]: noticeable inhibition

OO [hydrogen peroxide]
phosphorylation of endogenous IFNAR1 on Ser535 in the absence of IFN-α (IFNAR1 [1]; HeLa cells): noticeably stimulated
